# In patent US20030134859A1 (SANKYO COMPANY, LIMITED, priority 2000, published 2003):
# Tested on: ABCA1 mRNA
# Experiment: Quantitative analysis of ABCA1 mRNA (TaqMan PCR) in RAW264.7 cells
# Format: cell-based, mouse
# Conditions: 100 nM test compound, 24 hr, normalised to β-actin, DMSO = 100
# Experimental: The mouse monocyte/macrophage cell line, RAW264.7 (ATCC TIB71) was purchased from Dainippon Pharmaceutical Co., Ltd. As the medium, the Dulbecco's modified Eagle's medium (DMEM medium; GIBCO, Cat. No. 11995-040) containing bovine fetal serum (the final concentration: 10% (v/v), MOREGATE, lot No. 474030), penicillin G (the final concentration: 50 units/mL, GIBCO) and streptomycin (the final concentration: 20 μg/mL, GIBCO) was used.
# The culture of RAW264.7 cells was carried out in a CO2 incubator (37° C., 95% R.H., 5% of CO2).
# A 2 ml volume of RAW264.7 cells suspension (1×10^6 cells/mL) was plated in each well of a 6-well plate (2×10^6 cells/well) and the cells were incubated for 2 hr in a CO2 incubator. The test compounds dissolved in DMSO were diluted with DMEM medium by 20 times, and were added to the wells at a volume of 4 μL/well (final concentration of the test compound: 100 nM). As the control, the DMSO solution was diluted with the DMEM medium by 20 times, and was added to the wells at the volume of 4 μL/well. After the cells were cultured in a CO2 incubator for 24 hr, the medium was removed and the total RNA was purified by using an RNeasy Mini Kit (Qiagen), according to the protocol attached. The concentration of the RNA in the samples obtained was calculated from absorbance at 260 nm (A260=1=40 μg/ml). Six (6) μg of total RNA were diluted with RNAase-free water so as to be 22.6 μL, which was heated at 65° C. for 10 min, and then was cooled on ice. The RNA in the solution was used as the template, and the cDNA was synthesized by using a First-strand cDNA Synthesis Kit (Amersham Pharmacia Biotech). In this reaction, a solution was prepared having the following composition and was reacted at 37° C. for 1 hr.
# After the reaction, 3 μL of soution were collected from each of the reaction mixtures of the test compound-treated cell samples and that of the control cell samples. The mixed solution was used as the standard solution. The standard solution and each reaction solution were purified with a Chroma Spin-100+DEPC-H2O Column according to the protocol attached, and they were used as the template for TaqMan PCR (Template). In order to draw the calibration curve, the standard solution was diluted by every 5 times for 5 steps and each solution was used for TaqMan PCR. TaqMan PCR was carried out in ABCA1 and β-actin. As Primers for use in the TaqMan PCR, 4 oligonucleotides (abca1 forward (S3), abca1 reverse (AS3), β-actin forward (S4) and β-actin reverse (AS4)) were designed which are shown in sequences No. 5 to 8 in the sequence table described later. The synthesis and purification of these 4 oligomers was ordered from Amersham Pharmacia Biotech Co.
# As FAM-TAMRA labelled TaqMan Probe, 2 kinds of oligonucleotides (abca1 (p1) and β-actin (p2)) were designed and were ordered from Applied Biosystems Co. to synthesize and purify.
# The following reaction mixture of ABCA1 or β-actin was divided into 2 wells of a MicroAmp Optical 96-well Reaction Plate (Applied Biosystem Co.). TaqMan Universal PCR Master Mix was purchased from Applied Biosystem Co.
# The plate was covered with a MicroAmp Optical Cap (Applied Biosystems Co.), and TaqMan PCR was carried out by using an ABI PRISM 7,700 Sequence Detection System (Applied Biosystem Co.) under the following conditions:
# An analysis was made according to the procedures described in the manual of Sequence Detection Software (Applied Biosystem Co.) and the increased rate of ABCA1 mRNA due to the test compound was calculated based on the following equation.
# A: Amount of the ABCA1 mRNA in the presence of the test compound
# B: Amount of the β-actin mRNA in the presence of the test compound
# C: Amount of the ABCA1 mRNA in the presence of DMSO
# D: Amount of the β-actin mRNA in the presence of DMSO
# Increase Rate (%) of ABCA1 mRNA=(A/B)/(C/D)×100
smiles,measurement,value
"O=C(Nc1ccc(-c2ccc(O)cc2)cc1)c1cc([N+](=O)[O-])ccc1Cl [Example 135, N-[4-(4-Hydroxyphenyl)phenyl]-2-(chloro-5-nitrophenyl)carboxamide]",Rate of Increase (%) of ABCA1 mRNA,163.0%
